Experimental data published in the supplement of paper PMC10627819.

Columns and labels:
B. subtilis 168 [1] = experiment: Bliss interaction score (quartile over a dose matrix) (fitness difference); higher = more antagonism (negative = synergy)
Summary of the method: (§1)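 Fitness here means normalised growth, inferred for single drugs from the combination data. Growth was OD595 at entry into stationary phase, divided by the plate's robust no-drug mean and capped at 1. The Bliss score is observed minus expected fitness, with the expectation being the product, and its quartiles span technical, biological and donor/recipient replicates.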

S. aureus DSM 20231 = experiment: as above
Summary of the method: as §1

S. aureus Newman = experiment: as above
Summary of the method: as §1

S. pneumoniae D39V [2] = experiment: as above
Summary of the method: as §1

B. subtilis 168 [3] = experiment: fitness (endpoint OD595 vs no drug) (fraction); higher = more growth
Summary of the method: (§2)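 Fitness was defined as the optical density at the transition into stationary phase relative to the robust mean of no-drug control wells. Values were capped at 1. Cultures were started at OD595 0.01 in 384-well plates (30 µl, or 55 µl for S. pneumoniae) in TSB, LB Lennox or CY at 37 °C. OD595 was recorded every 30 min over 14 h, with the first reading subtracted as background.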

S. pneumoniae D39V [4] = experiment: as above
Summary of the method: as §2
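Throughout, for Bliss interaction score (quartile over a dose matrix): first quartile when negative (synergy) and third quartile when positive (antagonism).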

C[C@H]1c2cccc(O)c2C(=O)C2=C(O)[C@]3(O)C(=O)C(C(N)=O)=C(O)[C@@H](N(C)C)[C@@H]3[C@@H](O)[C@@H]21 [Doxycycline] + CC(=O)NC[C@H]1CN(c2ccc(N3CCOCC3)c(F)c2)C(=O)O1 [Linezolid]
Details | Bliss interaction score
B. subtilis 168 [1] | -0.137
S. aureus DSM 20231 | -0.0188
S. aureus Newman | -0.0282
S. pneumoniae D39V [2] | -0.197

fitness, one replicate
Details | first compound 0.003875 µg/mL | first compound 0.00775 µg/mL | first compound 0.02 µg/mL | first compound 0.031 µg/mL | first compound 0.04 µg/mL | first compound 0.062 µg/mL | first compound 0.08 µg/mL
B. subtilis 168 [3], partner 0.0625 µg/mL | – | – | 0.775 | – | 0.51 | – | 0.0619
S. pneumoniae D39V [4], partner 0.2 µg/mL | 0.796 | 0.774 | – | 0.668 | – | 0.465 | –
S. pneumoniae D39V [4], partner 0.4 µg/mL | 0.7 | 0.65 | – | 0.4 | – | 0.241 | –
S. pneumoniae D39V [4], partner 0.8 µg/mL | 0.353 | 0.37 | – | 0.24 | – | 0.116 | –

Details | fitness
B. subtilis 168 [3], first compound 0.02 µg/mL, partner 0.5 µg/mL | 0.0524
B. subtilis 168 [3], first compound 0.04 µg/mL, partner 0.5 µg/mL | 0.0497
B. subtilis 168 [3], first compound 0.08 µg/mL, partner 0.25 µg/mL | 0.0313
B. subtilis 168 [3], first compound 0.08 µg/mL, partner 0.5 µg/mL | 0.0418
S. pneumoniae D39V [4], first compound 0.0155 µg/mL, partner 0.105 µg/mL | 0.702
S. pneumoniae D39V [4], first compound 0.0155 µg/mL, partner 0.2 µg/mL | 0.776
S. pneumoniae D39V [4], first compound 0.0155 µg/mL, partner 0.21 µg/mL | 0.595
S. pneumoniae D39V [4], first compound 0.0155 µg/mL, partner 0.4 µg/mL | 0.575
S. pneumoniae D39V [4], first compound 0.0155 µg/mL, partner 0.42 µg/mL | 0.406
S. pneumoniae D39V [4], first compound 0.0155 µg/mL, partner 0.8 µg/mL | 0.325
S. pneumoniae D39V [4], first compound 0.031 µg/mL, partner 0.105 µg/mL | 0.694
S. pneumoniae D39V [4], first compound 0.031 µg/mL, partner 0.21 µg/mL | 0.602
S. pneumoniae D39V [4], first compound 0.031 µg/mL, partner 0.42 µg/mL | 0.297
S. pneumoniae D39V [4], first compound 0.062 µg/mL, partner 0.105 µg/mL | 0.606
S. pneumoniae D39V [4], first compound 0.062 µg/mL, partner 0.21 µg/mL | 0.477
S. pneumoniae D39V [4], first compound 0.062 µg/mL, partner 0.42 µg/mL | 0.207

O=C(O)c1cn(C2CC2)c2cc(N3CCNCC3)c(F)cc2c1=O [Ciprofloxacin] + C[C@H]1c2cccc(O)c2C(=O)C2=C(O)[C@]3(O)C(=O)C(C(N)=O)=C(O)[C@@H](N(C)C)[C@@H]3[C@@H](O)[C@@H]21 [Doxycycline]
Details | Bliss interaction score
B. subtilis 168 [1] | 0.183
S. aureus DSM 20231 | 0.0661
S. aureus Newman | 0.0631
S. pneumoniae D39V [2] | 0.0673

fitness
Details | partner 0.0155 µg/mL | partner 0.02 µg/mL | partner 0.031 µg/mL | partner 0.04 µg/mL | partner 0.08 µg/mL
B. subtilis 168 [3], first compound 0.0098 µg/mL | – | 0.879 | – | 0.813 | 0.677
B. subtilis 168 [3], first compound 0.0195 µg/mL | – | 0.726 | – | 0.688 | 0.58
S. pneumoniae D39V [4], first compound 0.125 µg/mL | 0.891 | – | 0.742 | – | –
S. pneumoniae D39V [4], first compound 0.25 µg/mL | 0.892 | – | 0.703 | – | –

fitness, S. pneumoniae D39V [4], one replicate
Details | first compound 0.125 µg/mL | first compound 0.25 µg/mL | first compound 0.5 µg/mL
partner 0.003875 µg/mL | ≥ 1 | 0.931 | 0.804
partner 0.00775 µg/mL | 0.967 | 0.913 | 0.825

C[C@H]1c2cccc(O)c2C(=O)C2=C(O)[C@]3(O)C(=O)C(C(N)=O)=C(O)[C@@H](N(C)C)[C@@H]3[C@@H](O)[C@@H]21 [Doxycycline] + CN[C@@H]1[C@H](O[C@H]2[C@H](O[C@H]3[C@H](O)[C@@H](O)[C@H](N=C(N)N)[C@@H](O)[C@@H]3N=C(N)N)O[C@@H](C)[C@]2(O)C=O)O[C@@H](CO)[C@H](O)[C@H]1O [Streptomycin]
Details | Bliss interaction score
B. subtilis 168 [1] | 0.251
S. aureus DSM 20231 | 0.0508
S. aureus Newman | -0.016
S. pneumoniae D39V [2] | -0.0673

fitness
Details | partner 2 µg/mL | partner 4 µg/mL | partner 8 µg/mL
B. subtilis 168 [3], first compound 0.02 µg/mL | 0.902 | 0.772 | –
B. subtilis 168 [3], first compound 0.04 µg/mL | 0.766 | 0.678 | –
B. subtilis 168 [3], first compound 0.08 µg/mL | 0.497 | – | –
S. pneumoniae D39V [4], first compound 0.0155 µg/mL | 0.9 | 0.895 | 0.891
S. pneumoniae D39V [4], first compound 0.031 µg/mL | 0.866 | 0.859 | 0.837
S. pneumoniae D39V [4], first compound 0.062 µg/mL | 0.72 | 0.714 | 0.735

S. pneumoniae D39V [4], one replicate
Details | fitness
first compound 0.003875 µg/mL, partner 2 µg/mL | 0.955
first compound 0.003875 µg/mL, partner 4 µg/mL | ≥ 1
first compound 0.003875 µg/mL, partner 8 µg/mL | 0.977
first compound 0.00775 µg/mL, partner 2 µg/mL | 0.928
first compound 0.00775 µg/mL, partner 4 µg/mL | 0.952
first compound 0.00775 µg/mL, partner 8 µg/mL | 0.937
first compound 0.0155 µg/mL, partner 16 µg/mL | 0.741
first compound 0.031 µg/mL, partner 16 µg/mL | 0.671
first compound 0.062 µg/mL, partner 16 µg/mL | 0.57

CO/N=C(\C(=O)N[C@@H]1C(=O)N2C(C(=O)O)=C(COC(C)=O)CS[C@H]12)c1csc(N)n1 [Cefotaxime] + CN(C)C(=O)C(CCN1CCC(O)(c2ccc(Cl)cc2)CC1)(c1ccccc1)c1ccccc1 [Loperamide]
Details | Bliss interaction score
B. subtilis 168 [1] | -0.0982
S. aureus DSM 20231 | -0.0602
S. aureus Newman | 0.0269
S. pneumoniae D39V [2] | -0.0572

fitness, one replicate
Details | first compound 0.0018 µg/mL | first compound 0.0035 µg/mL | first compound 0.007 µg/mL | first compound 0.00775 µg/mL | first compound 0.0155 µg/mL | first compound 0.031 µg/mL
B. subtilis 168 [3], partner 25 µg/mL | – | – | – | 0.406 | 0.0668 | 0.0762
B. subtilis 168 [3], partner 50 µg/mL | – | – | – | 0.0446 | 0.0311 | 0.0295
B. subtilis 168 [3], partner 100 µg/mL | – | – | – | 0.0412 | 0.0228 | 0.0243
S. pneumoniae D39V [4], partner 68.57 µg/mL | ≥ 1 | 0.999 | 0.761 | – | – | –

Details | fitness
B. subtilis 168 [3], first compound 0.5 µg/mL, partner 25 µg/mL | 0.0401
B. subtilis 168 [3], first compound 0.5 µg/mL, partner 50 µg/mL | 0.0447
B. subtilis 168 [3], first compound 0.5 µg/mL, partner 100 µg/mL | 0.0339
B. subtilis 168 [3], first compound 1 µg/mL, partner 25 µg/mL | 0.0257
B. subtilis 168 [3], first compound 1 µg/mL, partner 50 µg/mL | 0.0406
B. subtilis 168 [3], first compound 1 µg/mL, partner 100 µg/mL | 0.032
B. subtilis 168 [3], first compound 2 µg/mL, partner 25 µg/mL | 0.0689
B. subtilis 168 [3], first compound 2 µg/mL, partner 50 µg/mL | 0.0803
B. subtilis 168 [3], first compound 2 µg/mL, partner 100 µg/mL | 0.0709
S. pneumoniae D39V [4], first compound 0.0018 µg/mL, partner 17.14 µg/mL | 0.977
S. pneumoniae D39V [4], first compound 0.0018 µg/mL, partner 20 µg/mL | 0.988
S. pneumoniae D39V [4], first compound 0.0018 µg/mL, partner 34.28 µg/mL | 0.984
S. pneumoniae D39V [4], first compound 0.0018 µg/mL, partner 40 µg/mL | ≥ 1
S. pneumoniae D39V [4], first compound 0.0018 µg/mL, partner 80 µg/mL | ≥ 1
S. pneumoniae D39V [4], first compound 0.0035 µg/mL, partner 17.14 µg/mL | 0.981
S. pneumoniae D39V [4], first compound 0.0035 µg/mL, partner 20 µg/mL | 0.984
S. pneumoniae D39V [4], first compound 0.0035 µg/mL, partner 34.28 µg/mL | 0.935
S. pneumoniae D39V [4], first compound 0.0035 µg/mL, partner 40 µg/mL | 0.977
S. pneumoniae D39V [4], first compound 0.0035 µg/mL, partner 80 µg/mL | 0.956
S. pneumoniae D39V [4], first compound 0.007 µg/mL, partner 20 µg/mL | 0.898
S. pneumoniae D39V [4], first compound 0.007 µg/mL, partner 40 µg/mL | 0.842
S. pneumoniae D39V [4], first compound 0.007 µg/mL, partner 80 µg/mL | 0.262
